Test results as given in US4937232A, “Inhibition of protein kinase C by long-chain bases” (priority 1988, dated 1990).

Experiments:
[1] = tested on: phorbol ester receptor of HL-60 cells (protein kinase C); assay: Competition for [3H]phorbol dibutyrate binding by HL-60 cells; set-up: species or system human; details: 12 nM [3H]phorbol dibutyrate, 1 h at 37°; read-out: 50% inhibition of [3H]phorbol dibutyrate binding
Experimental: Competitive binding assays were conducted as described by Goodwin and Weinberg (J. Clin. Invest, 70, 699-706, 1982 and Ebling et al (ibid.). Approximately 1×10^6 cells/ml were incubated with 12 nM [^3 H]phorbol dibutyrate (8.3 Ci/mmol) and varying concentrations of sphinganine (1:1 with BSA) for 1 h at 37°. The cells were recovered on Millipore filters, washed, and counted. The data were corrected for nonspecific binding by subtracting the cpm obtained in the presence of 300 nM PMA.

[2] = tested on: human neutrophils; assay: Superoxide production by neutrophils (cytochrome c reduction); type: cell-based; details: Neutrophil, approximately 5×10^5 cells/ml, all activators, read-out: concentration for 50% inhibition of superoxide production
Experimental: Superoxide production by cells was quantitated from superoxide-mediated reduction of cytochrome c, monitored as an increase in absorbance at 550 nm and an extinction coefficient at 21,000 M^-1 cm^-1. Measurements were carried out at 37° C. using approximately 5×10^5 neutrophils per ml, stirred continuously. The cells were allowed to equilibrate several minutes prior to the addition of effectors. Conditions for individual experiments are described in figure legends and tables. Controls utilizing added superoxide dismutase verified that the cytochrome c reduction was mediated by superoxide.

[3] = biological target: protein kinase C; assay: Mixed micellar protein kinase C activity assay for lysosphingolipids (Table VI); type: biochemical
Experimental: (§1) TABLE VI: Inhibition of protein kinase C activity and phorbol-dibutyrate binding by lysosphingolipids. […] The remaining two columns show the observed effects of the lysosphingolipids of protein kinase C activity and phorbol diester binding in vitro and in human platelets. Lysogangliosides were prepared from their parental gangliosides by hydrolysis in methanolic KOH esentially as described by Neuenhofer et al. in Bioch. 24, 525, 1985. During this preparation, with approximately 90-95% conversion, the N-acetate of N-acetylneuraminic acid is partially hydrolyzed. Fatty acids were partitioned into heptane after acidification of the methanolic reaction mixture. Galactosylsphingosine, glucosylsphingosine, and lactosylsphingosine were prepared as previously described for galactosylsphingosine (Radin, Lipids 9, 358, 1974) Sphingosylphosphorylcholine was prepared by hydrolysis in HCl-butanol (Kaller, Biochemische Zeitschrift 334, 451, 1961). The purity of the lyso derivatives (greater than 90%) was checked by thin layer chromatography (TLC) on silica gel H plates developed in chloroform/methanol/2N NH4 OH (65/35/9) and visualized by ninhydrin reaction for N-lyso compounds, by α-naphthol/sulfuric acid for both gangliosides and lysogangliosides,and by a phospholipid spray for sphingosylphosphorylcholine. Lysosphingolipids were quantitated by reaction of the amine group with trinitrobenzenesulfonate. Gangliosides and lysosphingolipids were also quantitated by reaction with anthrone. The lysosphingolipids were then studied for their effect on protein kinase C activity. Protein kinase C was purified to near homogeneity by the method of Wolf et al. (J. Biol. Chem. 260, 15718, 1985), and activity was measured using a mixed micellar assay (described herein). Lysosphingolipids were added directly in aqueous solution, and allowed to equilibrate with the Triton X-100 (0.3% w/v) mixed micelles containing 6 mol % phosphatidylserine and 2 mol % dioleoylglycerol. […] Phorbol-dibutyrate binding was measured in a mixed micellar assay. Lysosphingolipids inhibited phorbol-dibutyrate binding to protein kinase C in the presence of Triton X-100 mixed micelles containing 20 mol % phosphatidylserine. […] The difference is related to the higher concentration of phosphatidylserine used in the binding assay, as both activity and binding show a high cooperative dependence on phosphatidylserine, which modulates the inhibition by lysosphingolipids. Phorbol-dibutyrate binding to human platelets and 40 kDa phosphorylation in platelets were carried out as described above. Lysosphingolipids inhibited phorbol dibutyrate binding to human platelets at concentrations in the 10-50 μM range. Inhibition of 40 kDa phosphorylation occurred over the same concentration range.

[4] = biological target: protein kinase C; assay: Phorbol-dibutyrate binding to protein kinase C, mixed micellar assay (Table VI); details: Triton X-100 mixed micelles, 20 mol % phosphatidylserine
Experimental: as §1

IC50 [1] [µM]	IC50 [2] [nM]	SMILES	Inhibition of Protein Kinase C, concentration giving 50% inhibition, (mol %) ([3]; 0.3% Triton X-100, 1 mol % = 43 μM)	IC50 ([3]; 0.3% Triton X-100 mixed micelles, 6 mol % phosphatidylserine, 2 mol % dioleoylglycerol, read-out: Inhibition of Protein Kinase C, concentration giving 50% inhibition) [µM]	Inhibition of [3H]PDBu Binding to Protein Kinase, (mol %) [4] [mol %]	IC50 ([4]; read-out: Inhibition of [3H]PDBu Binding to Protein Kinase) [µM]
~15	~1000	CCCCCCCCCCCCCCC[C@@H](O)[C@@H](N)CO (relative stereo) [Sphinganine, erythro-dihydrosphingosine]				
		CCCCCCCCCCCCC/C=C/[C@@H](O)[C@@H](N)CO [sphingosine]	1.9	80	9.3	400
